Results published in patent US20170334934A1, “Macrocyclic picolinamides as fungicides” (DOW AGROSCIENCES LLC, priority 2014, published 2017).
Where two headings read alike, the source gives them in different places.

How the values were obtained:
[1] = test system: Puccinia triticina; test: Fungicidal activity: Wheat Brown Rust (PUCCRT), wheat seedlings; format: in vivo; details: for pest or weed control at 121.5 g/ha: Low Volume (121.5 g/H); for pest or weed control at 100 µg/mL: High Volume (100 ppm)
Experimental: Technical grades of materials were dissolved in acetone, which were then mixed with nine volumes of water containing 110 ppm Triton X-100. The fungicide solutions were applied onto wheat seedlings using an automated booth sprayer to run-off. All sprayed plants were allowed to air dry prior to further handling. All fungicides were evaluated using the aforementioned method for their activity vs. all target diseases, unless stated otherwise. Wheat leaf blotch and brown rust activity were also evaluated using track spray applications, in which case the fungicides were formulated as EC formulations, containing 0.1% Trycol 5941 in the spray solutions. Wheat plants (variety Yuma) were grown from seed in a greenhouse in 50% mineral soil/50% soil-less Metro mix until the first leaf was fully emerged, with 7-10 seedlings per pot. These plants were inoculated with an aqueous spore suspension of Zymoseptoria tritici either prior to or after fungicide treatments. After inoculation the plants were kept in 100% relative humidity (one day in a dark dew chamber followed by two to three days in a lighted dew chamber at 20° C.) to permit spores to germinate and infect the leaf. The plants were then transferred to a greenhouse set at 20° C. for disease to develop. When disease symptoms were fully expressed on the 1st leaves of untreated plants, infection levels were assessed on a scale of 0 to 100 percent disease severity. Percent disease control was calculated using the ratio of disease severity on treated plants relative to untreated plants. Example B: Evaluation of Fungicidal Activity: Wheat Brown Rust (Puccinia triticina; Synonym: Puccinia recondita f. sp. tritici; Bayer Code PUCCRT) Wheat plants (variety Yuma) were grown from seed in a greenhouse in 50% mineral soil/50% soil-less Metro mix until the first leaf was fully emerged, with 7-10 seedlings per pot. These plants were inoculated with an aqueous spore suspension of Puccinia triticina either prior to or after fungicide treatments. After inoculation the plants were kept in a dark dew room at 22° C. with 100% relative humidity overnight to permit spores to germinate and infect the leaf. The plants were then transferred to a greenhouse set at 24° C. for disease to develop. Fungicide formulation, application and disease assessment followed the procedures as described in the Example A.

[2] = test system: Mycosphaerella graminicola; Anamorph: Zymoseptoria tritici; test: Fungicidal activity: Leaf Blotch of Wheat (SEPTTR), wheat seedlings; format: in vivo; details: wheat; for pest or weed control at 121.5 g/ha: Low Volume (121.5 g/H); for pest or weed control at 100 µg/mL: High Volume (100 ppm)
Experimental: Example A: Evaluation of Fungicidal Activity: Leaf Blotch of Wheat (Mycosphaerella graminicola; Anamorph: Zymoseptoria tritici; Bayer Code […]) Technical grades of materials were dissolved in acetone, which were then mixed with nine volumes of water containing 110 ppm Triton X-100. The fungicide solutions were applied onto wheat seedlings using an automated booth sprayer to run-off. All sprayed plants were allowed to air dry prior to further handling. All fungicides were evaluated using the aforementioned method for their activity vs. all target diseases, unless stated otherwise. Wheat leaf blotch and brown rust activity were also evaluated using track spray applications, in which case the fungicides were formulated as EC formulations, containing 0.1% Trycol 5941 in the spray solutions. Wheat plants (variety Yuma) were grown from seed in a greenhouse in 50% mineral soil/50% soil-less Metro mix until the first leaf was fully emerged, with 7-10 seedlings per pot. These plants were inoculated with an aqueous spore suspension of Zymoseptoria tritici either prior to or after fungicide treatments. After inoculation the plants were kept in 100% relative humidity (one day in a dark dew chamber followed by two to three days in a lighted dew chamber at 20° C.) to permit spores to germinate and infect the leaf. The plants were then transferred to a greenhouse set at 20° C. for disease to develop. When disease symptoms were fully expressed on the 1st leaves of untreated plants, infection levels were assessed on a scale of 0 to 100 percent disease severity. Percent disease control was calculated using the ratio of disease severity on treated plants relative to untreated plants.

[3] = 24 h, 1 Day Protectant, read-out: PUCCRT disease control rating, 1DP
[4] = 72 h, 3 Day Curative, read-out: PUCCRT disease control rating, 3DC
[5] = 24 h, 1 Day Protectant, read-out: SEPTTR disease control rating, 1DP
[6] = 72 h, 3 Day Curative, read-out: SEPTTR disease control rating, 3DC

Structure (SMILES) | pest or weed control at 121.5 g/ha [1, 3] | pest or weed control at 121.5 g/ha [1, 4] | pest or weed control at 121.5 g/ha [2, 5] | pest or weed control at 121.5 g/ha [2, 6] | pest or weed control at 100 µg/mL [1, 3] | pest or weed control at 100 µg/mL [1, 4] | pest or weed control at 100 µg/mL [2, 5] | pest or weed control at 100 µg/mL [2, 6]
COc1ccc(C[C@H]2OCC[C@H](NC(=O)c3nccc(OC)c3OCOC(C)=O)C(=O)O[C@@H](C)[C@@H]2OCC2CC2)cc1 [Compound 86] | > 70% | > 70% | > 70% | < 70% |  |  |  | 
COc1ccnc(C(=O)N[C@H]2CCOC[C@@H](OCc3ccccc3)[C@H](C)OC2=O)c1O [Compound 66] |  |  |  |  | > 70% | > 70% | < 70% | < 70%
COc1ccnc(C(=O)N[C@H]2CCO[C@H](Cc3ccc(F)cc3)[C@@H](OCC(C)C)[C@H](C)OC2=O)c1OC(C)=O [Compound 77] | > 70% | > 70% | > 70% | > 70% |  |  |  | 
CC[C@H]1OCC[C@H](NC(=O)c2nccc(OC)c2O)C(=O)O[C@@H](C)[C@@H]1Oc1ccc(F)cc1 [Compound 64] |  |  |  |  | > 70% | > 70% | > 70% | > 70%
COc1ccnc(C(=O)N[C@H]2CCO[C@H](CC3CCCC3)[C@@H](Oc3ccccc3)[C@H](C)OC2=O)c1O [Compound 58] |  |  |  |  | > 70% | > 70% | > 70% | > 70%
CC[C@H]1OCC[C@H](NC(=O)c2nccc(OC)c2OC(C)=O)C(=O)O[C@@H](C)[C@@H]1Oc1ccccc1 [Compound 94] | > 70% | > 70% | > 70% | > 70% |  |  |  | 
CCCO[C@H]1[C@H](C)OC(=O)[C@@H](NC(=O)c2nccc(OC)c2OC(C)=O)CCO[C@@H]1Cc1ccc(F)cc1 [Compound 81, 2-(((2R,3S,4S,7S)-2-(4-fluorobenzyl)-4-methyl-6-oxo-3-propoxy-1,5-dioxonan-7-yl)carbamoyl)-4-methoxypyridin-3-yl acetate] | < 70% | < 70% | < 70% | < 70% |  |  |  | 
COc1ccnc(C(=O)N[C@H]2CCOC[C@@H](Oc3ccccc3)[C@H](C)OC2=O)c1O [Compound 69] |  |  |  |  | > 70% | > 70% | > 70% | > 70%
COc1ccnc(C(=O)N[C@H]2CCOC[C@@H](OC(=O)C(C)C)[C@H](C)OC2=O)c1OCOC(C)=O [Compound 98] | < 70% | < 70% | < 70% | < 70% |  |  |  | 
COc1ccnc(C(=O)N[C@H]2CCOC[C@@H](OCC(C)C)[C@H](C)OC2=O)c1OCOC(C)=O [Compound 97] | > 70% | > 70% | > 70% | > 70% |  |  |  | 
CC[C@H]1OCC[C@H](NC(=O)c2nccc(OC)c2OCOC(C)=O)C(=O)O[C@@H](C)[C@@H]1OCC(C)C [Compound 89] | > 70% | > 70% | > 70% | > 70% |  |  |  | 
CC[C@H]1OCC[C@H](NC(=O)c2nccc(OC)c2OC(C)=O)C(=O)O[C@@H](C)[C@@H]1OCC(C)C [Compound 93] | > 70% | > 70% | > 70% | > 70% |  |  |  | 
C=C(C)CO[C@H]1[C@H](C)OC(=O)[C@@H](NC(=O)c2nccc(OC)c2OC(C)=O)CCO[C@@H]1CC [Compound 92] | > 70% | > 70% | < 70% | < 70% |  |  |  | 
CCCO[C@H]1[C@H](C)OC(=O)[C@@H](NC(=O)c2nccc(OC)c2OCOC(C)=O)CCO[C@@H]1Cc1ccc(F)cc1 [Compound 79, ((2-(((2R,3S,4S,7S)-2-(4-fluorobenzyl)-4-methyl-6-oxo-3-propoxy-1,5-dioxonan-7-yl)carbamoyl)-4-methoxypyridin-3-yl)oxy)methyl acetate] | > 70% | > 70% | > 70% | > 70% |  |  |  | 
COc1ccnc(C(=O)N[C@H]2CCOC[C@@H](Oc3ccccc3)[C@H](C)OC2=O)c1OCOC(C)=O [Compound 99] | > 70% | > 70% | < 70% | < 70% |  |  |  | 
C=CCO[C@H]1[C@H](C)OC(=O)[C@@H](NC(=O)c2nccc(OC)c2OC(C)=O)CCO[C@@H]1Cc1ccc(F)cc1 [Compound 80] | < 70% | < 70% | < 70% | < 70% |  |  |  | 
CC[C@H]1OCC[C@H](NC(=O)c2nccc(OC)c2O)C(=O)O[C@@H](C)[C@@H]1OC(=O)C(C)C [Compound 65] |  |  |  |  | > 70% | > 70% | < 70% | < 70%
COc1ccnc(C(=O)N[C@H]2CCO[C@H](Cc3ccccc3)[C@@H](OCC(C)C)[C@H](C)OC2=O)c1O [Compound 51] |  |  |  |  | > 70% | > 70% | > 70% | < 70%
COc1ccnc(C(=O)N[C@H]2CCO[C@H](Cc3ccccc3)[C@@H](Oc3ccccc3)[C@H](C)OC2=O)c1OCOC(C)=O [Compound 82] | > 70% | > 70% | > 70% | > 70% |  |  |  | 
COc1ccnc(C(=O)N[C@H]2CCOC[C@@H](Oc3ccccc3)[C@H](C)OC2=O)c1OC(C)=O [Compound 100] | > 70% | > 70% | < 70% | > 70% |  |  |  | 
COc1ccnc(C(=O)N[C@H]2CCO[C@H](Cc3ccc(F)cc3)[C@@H](OCC(C)C)[C@H](C)OC2=O)c1O [Compound 53] |  |  |  |  | > 70% | > 70% | > 70% | > 70%
COc1ccnc(C(=O)N[C@H]2CCOC[C@@H](OC(=O)C(C)C)[C@H](C)OC2=O)c1O [Compound 70] |  |  |  |  | < 70% | < 70% | < 70% | < 70%
COc1ccnc(C(=O)N[C@H]2CCO[C@H](Cc3ccccc3)[C@@H](OCC(C)C)[C@H](C)OC2=O)c1OCOC(C)=O [Compound 72] | > 70% | > 70% | > 70% | > 70% |  |  |  | 
C=C(C)CO[C@H]1[C@H](C)OC(=O)[C@@H](NC(=O)c2nccc(OC)c2OCOC(C)=O)CCO[C@@H]1CC [Compound 88] | > 70% | > 70% | < 70% | < 70% |  |  |  | 
